Tests used:
[1] = tested on: PDAC lines; test: Recombinant TNFα treatment of PDAC lines: p-Hsp27, PARP cleavage, Annexin V; type: cell-based, human; conditions: for TNFα-induced p-Hsp27 / apoptosis: inhibitor plus TNFα
[2] = tested on: p-Hsp27; test: Immunoblot of p-MK2 and p-Hsp27 after individual chemotherapy agents; type: cell-based, human; conditions: for induction of p-MK2 and p-Hsp27: PDAC lines tested
Description: Western blotting was performed according to standard procedures. Cells grown in culture were washed twice in ice-cold 1×PBS and lysed in ice-cold RIPA buffer (10 nM Tris pH 7.4, 50 nM NaCl, 0.05% SDS, 0.05% Triton X-100, 0.5% sodium deoxycholate, and 10 nM EDTA) containing 1× protease inhibitor (Sigma), NaVO3, Na pyrophosphate, and NaF. Protein lysates were quantified by Bradford assay and suspended in 6×SDS sample buffer, followed by boiling for 5 min at 95 C. 40 ug of protein lysate was resolved on SDS-PAGE and blotted on nitrocellulose membrane. Antibodies used included p38 MAPK (CST 8690S), p38 MAPK T180/Y182 (CST 9215S), MK2 total (CST 12155S), MK2 T334 (CST 3041S), MK2 T222 (3316S), Hsp27 total (CST 2042S), Hsp27 phos S82 (9709S), ? H2Ax (CST 9718S), JNK T183/Y185 (CST 4668), GSK3 beta phos S9 (CST 5558), ATR phos T1989 (CST 58014), ATM phos 51981 (CST 4526), AMPKα1 phos T172 (CST 2335T), and GAPDH (sc-47724). Blots were imaged using chemiluminescent substrate (Thermo Scientific).

[3] = tested on: p-p38, p-MK2, and p-Hsp27; test: Immunoblot of SN38-induced p-p38, p-MK2, p-Hsp27 and apoptosis with upstream kinase inhibitors; type: cell-based, human; conditions: inhibitor in combination with SN38
Description: FIG. 3A contains immunoblot images showing p-p38, p-MK2, and p-Hsp27 activation in MIA paca-2 and Pa01c cells treated with SN38 10 μM for 16 hours alone or with IRAK4 inhibitor 4 μM, HCQ 20 μM, ATM inhibitor 20 μM, ATR inhibitor 20 μM, or TAK1 inhibitor 2 μM.
FIG. 3B contains immunoblot images of MIA paca-2 and Pa01c cells treated with SN38 10 μM alone for 16 hours or in combination with TAK1 inhibitor 2 μM for 16 hours.
To investigated the mechanism by which DNA damage activates MK2 and Hsp27, PDAC cells were treated with SN38 alone or in combination with inhibitors of IRAK4 (PF06650833), TLR9 (hydroxychloroquine, or HCQ), ATM (KU55933), ATR (VE821), and TAK1 (5z-7-oxozeanol).

[4] = tested on: TNFα mRNA expression; test: qPCR of cytokine expression after SN38, Pa01c; type: cell-based, human; conditions: for SN38-induced induction of TNFα: inhibitor 2 μM before SN38
Description: (§1) FIG. 3D contains graphs summarizing the results of qPCR for TNFα, TNFβ, TGFβ, IL-1α, and IL-1β in Mia paca-2 (right) and Pa01c (left) cells treated with control or SN38 10 μM for 16 hours. P values from two-away ANOVA with Dunnett's multiple comparison test and error bars are mean+SEM. ***P<0.0002, ****P<0.0001.
FIG. 3F is a graph summarizing the results of qPCR showing TNFα expression in Pa01c cells following treatment with SN38 10 μM alone for 16 hours, or in combination with TAKli 2 μM or IKKi 2 μM for 24 hours prior to treatment with SN38 10 μM for 16 hours. P values from two-away ANOVA with Dunnett's multiple comparison test and error bars are mean+SEM. *P<0.0247, **P<0.0025.
(§2) RNAzol RT (Sigma) was used to isolate total RNA. cDNA was made with High Capacity cDNA reverse transcription kit (Thermo Fisher Scientific, 4368814). qPCR was performed with SYBR-Green reagent (Applied Biosciences). All experiments were performed in biological duplicates or triplicates (n=2, 3).
(§3) Because TAK1 is known to be a downstream kinase of TNF, TGFβ, and IL-1 receptors, a candidate approach was used to survey expression of TNFα/β, TGFβ, and IL-1α/β.

[5] = tested on: MIA paca-2 cells; test: FACS Annexin V and PI staining, MK2 inhibitor with or without SN38; type: cell-based, human; conditions: for apoptosis: MK2 inhibitor combined with SN38
Description: P values from one-way ANOVA with Dunnett's multiple comparison test and error bars are mean+SEM. **P<0.0021, ****P<0.0001.

[6] = tested on: autophagy markers; test: Autophagy markers (western blot, LC3 reporter) after SN38 with or without MK2 inhibitors; type: cell-based, human; conditions: for SN38-induced p-Beclin1 and LC3-II: MK2 inhibitor with SN38
[7] = tested on: p-Hsp27; test: Immunoblot of p-Hsp27 with MK2 inhibitors (SN38 or UV); type: cell-based, human; conditions: at baseline and following SN38 treatment
Description: FIG. 2E contains immunoblot images showing PARP cleavage of MIA paca-2 and Pa01c cells treated as in FIG. 1D.
FIG. 2H contains immunoblot images of p-p38, p-MK2, and p-Hsp27 from MIA paca-2 and Pa01c cells treated with 40 J/m2 of ultraviolet light (UV) alone or with MK2 inhibitor PF-3644022.
FIG. 2I contains immunoblot images of p-MK2 and p-Hsp27 from Pa01c cells treated with 40 J/m2 UV light, alone or with MK2 inhibitor ATI-450.
Western blotting was performed according to standard procedures. Cells grown in culture were washed twice in ice-cold 1×PBS and lysed in ice-cold RIPA buffer ([…]) containing 1× protease inhibitor (Sigma), NaVO3, Na pyrophosphate, and NaF. Protein lysates were quantified by Bradford assay and suspended in 6×SDS sample buffer, followed by boiling for 5 min at 95 C. 40 ug of protein lysate was resolved on SDS-PAGE and blotted on nitrocellulose membrane. Antibodies used included p38 MAPK (CST 8690S), p38 MAPK T180/Y182 (CST 9215S), MK2 total (CST 12155S), MK2 T334 (CST 3041S), MK2 T222 (3316S), Hsp27 total (CST 2042S), Hsp27 phos S82 (9709S), ? H2Ax (CST 9718S), JNK T183/Y185 (CST 4668), GSK3 beta phos S9 (CST 5558), ATR phos T1989 (CST 58014), ATM phos 51981 (CST 4526), AMPKα1 phos T172 (CST 2335T), and GAPDH (sc-47724). […]

[8] = tested on: PDAC cells; test: Apoptosis after SN38 with autophagy inhibition (HCQ, Beclin-1 ablation); type: cell-based, human
Text: FIG. 4D contains immunoblot images of MIA paca-2 and Pa01c cells following treatment with SN38, HCQ, or the combination. P values from two-way ANOVA with Sidak's multiple comparison test and error bars are mean+SEM. ***P=0.0009, *P=0.035.
FIG. 4F contains immunoblot images of MIA paca-2 control cells or Beclin 1 (BECN1) knockout treated with SN38, ATI-450, or the combination.
FIG. 4G contains scatter plots (left) and a graph summarizing quantification of a FACS analysis of MIA paca-2 control cells or Beclin 1 knockout cells treated with control (DMSO) or SN38 10 μM for 24 hours; graphic quantification of annexin V positive cells on the right.

[9] = tested on: TNFα protein; test: TNFα ELISA of Pa01c supernatant; type: cell-based, human; conditions: Pa01c cells, SN38 10 μM for 16 hours
Description: FIG. 3E is a graph summarizing TNFα ELISA of Pa01c cells treated with control or SN38 10 μM for 16 hours overnight. P values from one-way ANOVA with Dunnett's multiple comparison test and error bars are mean+SEM. *P<0.0332.
as §3

[10] = tested on: TNFα mRNA expression; test: qPCR of cytokine expression after SN38, MIA Paca-2; type: cell-based, human; conditions: MIA Paca-2 cells, SN38 10 μM for 16 hours
Description: as §1, §2, §3

[11] = patients with rheumatoid arthritis; cited from earlier work
[12] = tested on: KPPC mice; test: Autochthonous KPPC model, survival and tumor analysis; type: in vivo
Description: (§4) Tumors were formalin-fixed, paraffin-embedded, sectioned, and stained with hematoxylin and eosin (H&E). Immunohistochemistry (IHC) staining was performed using the following antibodies: p-Hsp27 S82 (CST cat #9709S), p-MK2 T334 (CST cat #3041S), p-p38 T180/Y182 (CST cat #9215S). Ten 200× or 400× power fields were analyzed per tumor independently by two individuals, and data were presented as mean+SEM of collated data. IHC sections were interpreted independently by two individual reviewers and representative data agreeable to all members were presented.
(§5) KPPC (p48-Cre/p53Flox/Flox LSL-KRASG12D) mice were created as described in previous publications. Treatment began six weeks after birth when tumors spontaneously form in vivo. FOLFIFINOX treatment was given by weekly intraperitoneal (I.P.) injection of 5-FU 25 mg/kg, irinotecan 17.5 mg/kg, and oxaliplatin 3.3 mg/kg. ATI-450 treatment was given as drug-impregnated chow, ad libitum, starting six weeks after birth; when given in combination with chemotherapy, ATI-450 chow was begun the day prior to initiation of chemotherapy.
All mice were treated beginning at 6 weeks of age until humane endpoints were reached.

[13] = tested on: non-pancreatic cancer cell lines (colon, gastric, breast); test: Apoptosis of non-pancreatic cancer cell lines with SN38 and ATI-450; type: cell-based; conditions: combination SN38 and ATI-450
[14] = tested on: KPPC mice; test: KPPC mice, ATI-450 chow for two weeks, histologic analysis of pancreata; type: in vivo
Description: as §4, §5
To complement the human xenograft models, which lacked the desmoplastic tumor microenvironment and intact immune system essential for PDAC development, an autochthonous KPPC (p48-Cre; p53flox/flox; LSL-KRASG12D) mouse model was treated and observed. KPPC mice were treated with vehicle or ATI-450 ad libitum in chow starting from 6 weeks-old of age when foci of invasive PDAC start to appear. After two weeks of treatment, all mice were euthanized and their pancreata were subjected to histologic analysis.

**Q.** Which “apoptosis (PARP cleavage and Annexin V staining)” value ([1]; recombinant TNFα alone) does the source give for TNFα here?
**A.** induced apoptosis

**Q.** What about the p-Hsp27 ([1]; recombinant TNFα alone) of the same molecule?
**A.** upregulated

**Q.** With `Nc1ccn([C@@H]2O[C@H](CO)[C@@H](O)C2(F)F)c(=O)n1` [Gemcitabine] as the molecule, how does the “induction of p-MK2 and p-Hsp27” value [2] read?
**A.** much lower degree

**Q.** With `CC(C)(C)C(=O)N1N=CC[C@H]1c1ccccc1` [RIPK inhibitor] as the molecule, how does the “TNFα-induced p-Hsp27” value [1] read?
**A.** did not block p-Hsp27

**Q.** And the apoptosis [1]?
**A.** did not block p-Hsp27 or alter apoptosis

**Q.** And the “SN38-induced p-p38, p-MK2, and p-Hsp27” value [3]?
**A.** not blocked

**Q.** What does the source list for `COc1cc(O)c2c(c1)/C=C/C[C@H](O)[C@H](O)C(=O)/C=C\C[C@H](C)OC2=O` [5z-7-oxozeanol, (5Z)-7-Oxozeaenol]?
**A.** SN38-induced induction of TNFα ([4]; Pa01c cells): abrogated; SN38-induced p-p38, p-MK2, and p-Hsp27 [3]: completely blocked; apoptotic effect of SN38 [3]: potentiated

**Q.** For `O=C(Nc1cc(C(F)(F)F)cc(C(F)(F)F)c1)c1cc(Cl)ccc1O` [IMD0354], which “SN38-induced induction of TNFα” value ([4]; Pa01c cells) is on record?
**A.** abrogated

**Q.** With `Cc1ccc(-c2ccc3c(ccc4sc5c(c43)NC[C@@H](C)NC5=O)n2)cn1` [PF-3644022] as the molecule, how does the “toxicity to PDAC cells” value ([5]; MK2 inhibitor alone) read?
**A.** not toxic

**Q.** What about the apoptosis [5] of the same molecule?
**A.** significantly increased apoptosis

**Q.** And the “SN38-induced p-Beclin1 and LC3-II” value [6]?
**A.** robustly suppress

**Q.** What about the p-Hsp27 [7] of the same molecule?
**A.** abolished

**Q.** With `CCN(CCO)CCCC(C)Nc1ccnc2cc(Cl)ccc12` (stereo not drawn) [hydroxychloroquine] as the molecule, how does the apoptosis ([8]; PDAC cells treated with SN38 and HCQ) read?
**A.** significantly higher levels of apoptosis

**Q.** What does the source list for `CCc1c2c(nc3ccc(O)cc13)-c1cc3c(c(=O)n1C2)COC(=O)[C@]3(O)CC` [SN38]?
**A.** LC3-GFP reporter expression ([6]; PDAC cells): significantly decreased; autophagy markers: p-ULK1 (S555), p-AMPKα (T172), p-Beclin1 (S90), p62 ([6]; western blots): markedly induced; TNFβ expression ([4]; Pa01c cells following SN38): elevated; TNFα mRNA expression ([4]; Pa01c cells, SN38 10 μM for 16 hours): ~30 fold; TNFα protein in supernatant [9]: increased TNFα protein; activation of p-Hsp27 ([2]; MIA Paca-2 cells, vehicle, 5-FU, SN38 or oxaliplatin individually): most strongly activates Hsp27; induction of p-MK2 and p-Hsp27 [2]: potently induced; TNFα mRNA expression [10]: ~30 fold

**Q.** Which apoptosis [5] does the source give for `Cc1cnc(-c2ccnc(C(C)(C)O)n2)cc1-n1c(C)cc(OCc2ncc(F)cc2F)c(Cl)c1=O` [ATI-450] here?
**A.** replicated

**Q.** What about the tolerability [11] of the same molecule?
**A.** well-tolerated

**Q.** What about the “SN38-induced p-Beclin1 and LC3-II” value [6] of the same molecule?
**A.** robustly suppress

**Q.** And the PDAC lesions ([12]; addition of ATI-450 to FOLFIRINOX)?
**A.** almost completely ablated

**Q.** And the “tumor histology (H&E)” value ([12]; mouse, in vivo)?
**A.** smaller but retained a significant fraction of overt PDAC

**Q.** What about the survival ([12]; treated from 6 weeks of age until humane endpoints) of the same molecule?
**A.** improved survival significantly greater than vehicle

**Q.** And the “p-Hsp27 (IHC), in vivo on-target effect” value ([12]; tumor sections)?
**A.** completely suppressed

**Q.** What about the “TNFα-induced p-Hsp27” value [1] of the same molecule?
**A.** abrogated

**Q.** And the apoptosis [1]?
**A.** augmented apoptosis

**Q.** What about the apoptosis [13] of the same molecule?
**A.** sensitized the cells to apoptosis

**Q.** And the p-Hsp27 [7]?
**A.** replicated

**Q.** What about the “PDAC burden of pancreata” value ([14]; ATI-450 in chow from 6 weeks of age, two weeks) of the same molecule?
**A.** significantly lower PDAC burdens

**Q.** And the “fractions of normal or early PanIN lesions” value ([14]; ATI-450 in chow, two weeks)?
**A.** relatively higher fractions

**Q.** What about the “tumor fibrosis by Sirius Red staining” value ([14]; ATI-450 in chow, two weeks) of the same molecule?
**A.** significantly less fibrotic

**Q.** And the “progression of PDAC” value ([14]; single agent)?
**A.** significantly delayed

**Q.** What about the apoptosis ([8]; Beclin-1-ablated cells, added to SN38) of the same molecule?
**A.** only marginally increased apoptosis

From patent US20230087078A1, “COMPOSITIONS AND METHODS FOR THE TREATMENT OF PANCREATIC CANCER” (Washington University, priority 2020, published 2023)
